Data from patent US5340925A, “Normal human growth regulatory receptor for TGF-β” (Oncogen, priority 1992, dated 1994).
Like-named read-outs stand apart in the source and are kept apart here.

Experiments:
[1] = test system: HEPM cells; assay: Growth stimulation assay: incorporation of 5-[125I]iodo-2'-deoxyuridine into DNA of quiescent HEPM cells; format: cell-based, human; conditions: 66 h + 6 h radionuclide label
Procedure: FIGS. 1(A) and 1(B) Bioactivity of TGF-β on HEPM cells: incorporation of radionuclide into DNA. Results are presented as percent stimulation vs the picomolar (pM) concentration of TGF-β. Percent stimulation was calculated as follows: treated (cpm)-untreated (cpm)/untreated (cpm) x 100. Panel A: TGF-β1, treatment. Panel B: TGF-β2 treatment.
HEPM cells (5,000 cells/50 μl ) were subcultured in 96-well tissue culture plates (Falcon 30072) in growth medium comprising minimal essential medium (Gibco, Grand Island, N.Y.) supplemented with 10% heat-inactivated fetal bovine serum, 600 μg/ml L-glutamine, 500 μg/ml penicillin and 500 μg/ml streptomycin for a 24-hour period at 37° C. in a humidified 5% CO2 /95% air atosphere. A nondividing, quiescent state of growth was achieved by subsequent incubation for 48 hours in growth medium supplemented with 0.5% fetal bovine serum. Quiescent cells were then stimulated to proliferate by the addition of fetal bovine serum (10 μl ) and test samples of TGF-β1, or TGF-β2 (50 μl). The cells were incubated an additional 66 hours at 37° C. […] The amount of cell growth was measured by the amount of radionuclide incorporated into the DNA of actively growing cells.

[2] = test system: HEPM cells; assay: Co-stimulation with EGF assay (radionuclide incorporation into DNA); format: cell-based, human
Procedure: Quiescent HEPM cells were stimulated to proliferate by the addition of fetal bovine serum (15 μ) and test samples of TGF-β2 (50 μl) and/or EGF (50 μl), resulting in a total assay volume of 165 μl. The amount of cell growth was measured by the amount of radionuclide incorporated into the DNA of actively growing cells.
The response of HEPM cells to TGF-β treatment in the presence of EGF was determined by radiolabeling the DNA of dividing cells as described in Materials and Methods. A suboptimal dose of TGF-β2 was analyzed for growth stimulatory activity in the presence of EGF. […] HEPM cells treated with both EGF and TGF-β2 at the same doses gave a 511% stimulation, a potentiated response of 340% over that expected from the sum of the two individual responses.

[3] = biological target: T1, HEPM cell-surface receptors for TGF-β (Homo sapiens, UniProt Q03167); assay: Radioreceptor assay: [125I]-iodo-TGF-β1 in competition with unlabeled TGF-β1, Scatchard analysis; format: binding; conditions: untreated HEPM cells, Scatchard two-site model
T1 construct: endogenous in cells; host or cells: HEPM (human embryonic palatal mesenchyme) cells, intact monolayers
T1 sequence (Q03167 21-851): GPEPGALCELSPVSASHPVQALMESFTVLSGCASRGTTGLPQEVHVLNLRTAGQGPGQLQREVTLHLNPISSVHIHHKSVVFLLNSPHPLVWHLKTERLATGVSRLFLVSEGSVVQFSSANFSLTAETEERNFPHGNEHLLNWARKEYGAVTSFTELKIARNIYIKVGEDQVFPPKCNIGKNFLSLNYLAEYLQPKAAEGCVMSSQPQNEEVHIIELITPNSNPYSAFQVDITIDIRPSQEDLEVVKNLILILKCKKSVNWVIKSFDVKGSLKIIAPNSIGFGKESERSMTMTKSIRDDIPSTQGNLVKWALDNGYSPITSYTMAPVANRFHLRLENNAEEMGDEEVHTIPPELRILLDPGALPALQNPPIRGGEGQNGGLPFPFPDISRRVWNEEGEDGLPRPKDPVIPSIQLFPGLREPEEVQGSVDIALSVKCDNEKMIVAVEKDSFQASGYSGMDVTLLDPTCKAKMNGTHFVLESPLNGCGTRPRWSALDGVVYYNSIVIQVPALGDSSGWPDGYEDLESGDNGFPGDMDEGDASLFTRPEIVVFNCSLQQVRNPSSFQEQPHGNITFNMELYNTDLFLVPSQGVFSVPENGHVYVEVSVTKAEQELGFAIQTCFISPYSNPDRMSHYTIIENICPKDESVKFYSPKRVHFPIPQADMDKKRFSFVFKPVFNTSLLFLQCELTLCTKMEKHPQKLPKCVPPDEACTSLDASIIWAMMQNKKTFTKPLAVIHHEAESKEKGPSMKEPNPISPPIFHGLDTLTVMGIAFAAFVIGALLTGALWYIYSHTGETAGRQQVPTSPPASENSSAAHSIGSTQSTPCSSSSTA
Procedure: (§1) HEPM cells were grown to confluence (1×10^5 cells/well) in 24-well Costar tissue culture plates. Prior to the binding assay, cells were pre-incubated in serum-free growth medium at 37° C. for 4 hours to allow for the dissociation of TGF-β from occupied cells surface receptors. The resulting monolayers were washed 2 times in binding buffer (Dulbecco's MEM+0.1% BSA+25 mM HEPES). 250 μl of binding buffer containing 0.5 μg/ml [^125 I]-iodoTGF-β1, (specific activity of 100 μCi/μg) together with increasing amounts of unlabeled TGF-β1 were added to duplicate wells. Steady state binding was carried out at 4° C. for 3 hours. After incubation cells were washed 3 times with cold binding buffer and solubilized in 200 μl of Triton solution (20 mM HEPES, 1% Triton X-100, 10% glycerol, 0.01% BSA, pH 7.4). Radioactivity was determined using a gamma spectrometer. Non-specific binding was determined in the presence of a 1,000-fold molar excess unlabeled TGF-β1.
(§2) The radioreceptor assay described in Materials and Methods was used to characterize the affinity and number of cell-surface receptors for TGF-β on HEPM cells. Specific binding of [^125 I]-iodo-TGF-βin these assays was 20% of the total radioligand present. […] Half-maximal displacement of radioligand occurred at 100 pM (2.6 ng/ml) unlabeled TGF-β1. Competitive binding data were plotted according to the method of Scatchard (Scatchard, et al., 1947, Ann. NY Acad Sci 51:660-672) and the results are presented in FIG. 5. A distinctly curvilinear isotherm was obtained indicating the presence of at least two classes of binding sites on HEPM cells. […] Quantitative analysis determined that HEPM cells contain a total of 287,000 TGF-β receptors per cell (55,400 high affinity and 231,600 low affinity sites).

[4] = test system: HEPM cell-surface receptors for TGF-β; assay: as above; format: binding, human; conditions: comparison of growth stimulation and receptor binding, FIG. 6
Procedure: as §1, §2

[5] = biological target: T2, TGF-β (Homo sapiens, UniProt P01137); assay: Affinity labeling of purified soluble receptor with [125I]-iodo-TGF-β, DSS cross-linking, SDS-PAGE; format: binding; conditions: [125I]-iodo-TGF-β with or without 1,000 ng/ml unlabeled TGF-β
T2 construct: endogenous in cells; host or cells: HEPM cells
T2 sequence (P01137 279-390): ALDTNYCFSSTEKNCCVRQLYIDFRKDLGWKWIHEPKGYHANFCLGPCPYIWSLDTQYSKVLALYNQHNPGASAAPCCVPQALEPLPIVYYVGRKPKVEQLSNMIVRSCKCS
Procedure: FIG. 10 Ability of purified TGF-β receptor to bind TGF-β. Affinity purified receptor preparations were crosslinked to bound [^125 I]-iodo-TGF-β with DSS and analyzed on SDS-PAGE. Lanes marked (-) contained only [^125 I]-iodo-TGF-β; lanes marked (+) contained [^125 I]-iodo-TGF-β in the presence of 1,000 ng/ml unlabeled TGF-β. The 240 Kd band is specifically labeled with radioligand and has the same mobility on SDS-PAGE as the receptor-TGF-β complex from cell surface membranes (see FIG. 7).
Solubilized receptor samples (50 μl) were diluted with three volumes of binding buffer containing 0.5% v/v Triton X-100 and 50 ng/ml [^125 I]-iodo-TGF-β. The samples were incubated at 4° C. for 3 hours in the presence or absence of 1,000 ng/ml unlabeled TGF-β. Four microliters (4 μl) of 10 mM DSS in DMSO were then added. After 15 minutes the unreacted DSS was quenched by adding 20 μl of 100 mM Tris/HCl pH 7.0.
Affinity-labeled samples were incubated at 4° C. for 2 hours with 15 μl of packed WGA-sepharose beads (wheat germ aglutinin-sepharose, Sigma) with end-over-end mixing. The beads were sedimented by centrifugation at 12,000 xg for 1 minute and washed three times with a buffer solution containing 0.5% v/v Triton X-100, 10 mM Tris/HCl, mM EDTA. The washed, packed beads were heated for 5 minutes at 95° C. in the presence of 20 μl of electrophoresis sample buffer containing 5% 2-mercaptoethanol. […]

Question: Which “ED50 in stimulating the proliferation of HEPM cells (half-maximal growth stimulation)” value [1] does the source give for “TGF-β2: polypeptide of molecular weight 26,000 composed of two identical 13,000 dalton subunits which are disulfide linked” here?
Answer: The value was 0.0023 nM.

Question: What about the percent stimulation ([2]; 0.3 ng/ml TGF-β2 alone (suboptimal dose)) of the same molecule?
Answer: The percent stimulation was 150%.

Question: “TGF-β: Transforming growth factor-Beta, type not named at the place; the underlying radioreceptor and FIG. 6 data were obtained with TGF-β1” was tested. Which Kd ([3]; read-out: kd, high-affinity (low capacity) site) did it give?
Answer: Its Kd is 0.058 nM.

Question: What about the Kd ([3]; read-out: kd, low-affinity (high capacity) site) of the same molecule?
Answer: The Kd was 0.898 nM.

Question: What about the “concentration to occupy all TGF-β receptor sites relative to concentration for maximal growth stimulatory response” value [4] of the same molecule?
Answer: Its value is “about 20 times”.

Question: For “EGF: epidermal growth factor [reference compound]”, which percent stimulation ([2]; 13 ng/ml EGF alone) is on record?
Answer: Its percent stimulation is 21%.

B1: affinity purified receptor: type III TGF-β receptor affinity purified from HEPM cells, about 200-206 kd, N-terminus Lys-Tyr-Tyr-Asp-Lys-Asp-Tyr (protein, UniProt Q03167 21-851, looked up)
Transforming growth factor …: T1 sequence (Q03167 21-851)
Question: For B1, which “ability of purified receptor to bind TGF-β” value [5] is on record?
Answer: Its value is “specifically bind TGF-β”.
